From US20200254065A1, “LONG-ACTING GLP-2 ANALOGS” (OPKO Biologics Ltd., priority 2019, published 2020)
Blank lines part the entries; values can stand above or below the molecule they belong to. Square brackets hold non-standard residues; d marks the D form. Peptide text beside a SMILES is read from it. Nle = CCCC[C@H](N)C(=O)O

Experiments:
[1] = circulating native GLP-2; in humans; cited from earlier work
[2] = Apraglutide, as previously reported, cited from earlier work
[3] = 2-compartmental pharmacokinetic modelling (MONOLIX 2018R2); assay type: in vivo, rat; conditions: rat, in vivo
Description: An in-depth PK modeling was performed to address the unexpected differences in half life, distribution, and pharmacological effect between V4, Cys-FMS-V4, and Apraglutide in the rat model. The analysis was performed with MONOLIX 2018R2 suite using a 2-compartmental pharmacokinetic model. The data used in this analysis was comprised from 3 independent experiments (data is presented as their average). The concentration versus time data of V4 that was formed from the Cys-FMS-V4 conjugate (the hydrolyzed peptide) was described appropriately using the values of the pharmacokinetic parameters of V4 peptide. Thus, the disposition of the hydrolyzed V4 was identical to that of the V4 peptide following the IV and SC administration.
The pharmacokinetics of Apraglutide in our studies was determined after SC administration. […] Based on this assumption, the values of volumes of distribution and clearance (Vpept, Vss, Vbeta, and CL) were calculated for Apraglutide (Table 13). The values of the other parameters of Apraglutide in Table 14 (the rate constants and the half-lives) are not dependent on this assumption.

[4] = Stability of GLP-2 analogues on incubation at 37° C. (appearance, O.D. reading, RP-HPLC); assay type: physicochemical; conditions: following 48 h incubation at 37° C.
Description: The GLP-2 analogues were tested for stability via appearance, O.D. reading (A.280, and A.325) and RP-HPLC (purity, and peak area) following t=0, 1 day, and 48 h incubation at 37° C.

[5] = PK after single SC injection in rats (LC-MS/MS); conditions: rat, in vivo, 2 mg/kg
Description: To support the pharmacodynamic effects of V4 and Cys-FMS-V4 as detailed in Example 9, a pharmacokinetic analysis was also conducted. In this study (Study reference 15204), all animals were injected SC on Day 1 with 2 mg/kg peptide content of V4, Cys-FMS-V4 and Apraglutide. Blood samples were collected at 2, 8, 12, 24, 36, 48, 72, 96, 120 hours, and Days 7, 8, 9, 10, 11, 12, 13 and 14 post-dose administration and subsequently taken to LC-MS/MS analysis to determine plasma levels of each compound. For Cys-FMS-V4, a 2-analyte method was applied to determine the plasma concentrations of both the full conjugate and the V4 that was hydrolyzed from it (V4 hydrolyzed). Plasma concentrations (μM), as measured by using the LC-MS/MS method, of V4 peptide, Cys-FMS-V4, hydrolyzed V4, and Apraglutide are presented in FIG. 17.

GLP-2 receptor [6] = target: T1, GLP-2 receptor (Homo sapiens, UniProt O95838); experiment: GLP-2 receptor Cell Based Assay (CBA); conditions: EC50 (nM) Average, average of 3 independent CBA; different GLP-2R Assay Kit lot (Table 8)
T1 sequence (O95838 1-553): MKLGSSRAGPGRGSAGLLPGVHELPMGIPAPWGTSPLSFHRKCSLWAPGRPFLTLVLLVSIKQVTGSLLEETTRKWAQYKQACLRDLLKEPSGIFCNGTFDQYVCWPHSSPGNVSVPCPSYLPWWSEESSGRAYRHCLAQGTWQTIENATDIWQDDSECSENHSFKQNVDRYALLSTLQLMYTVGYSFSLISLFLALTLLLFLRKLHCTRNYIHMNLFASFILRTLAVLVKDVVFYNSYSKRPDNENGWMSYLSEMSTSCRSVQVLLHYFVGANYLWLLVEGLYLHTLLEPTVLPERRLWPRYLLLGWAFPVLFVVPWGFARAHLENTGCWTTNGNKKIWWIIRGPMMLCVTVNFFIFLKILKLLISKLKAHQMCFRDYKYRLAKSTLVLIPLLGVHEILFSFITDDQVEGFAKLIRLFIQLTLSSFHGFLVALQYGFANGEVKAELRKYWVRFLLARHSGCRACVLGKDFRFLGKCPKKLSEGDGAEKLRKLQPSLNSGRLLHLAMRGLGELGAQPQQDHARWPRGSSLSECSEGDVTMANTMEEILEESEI
Description: Evaluation of in vitro binding affinity of the different peptides was assessed by using Cell Based Assay (CBA) in the presence of escalating doses of the different peptides.

[7] = Pharmacokinetics of conjugated teduglutide in rats (commercial GLP2 ELISA kit); assay type: in vivo; conditions: SD rats
Description: Plasma samples were collected at pre-dose, 0.5, 2, 4, 8, 12, 24, 48, 72, 96, 168, 216, and 240 hours post dose. The levels of conjugates and free teduglutide were measured using commercial GLP2 ELISA kit.

small intestine = experiment: Intestine weight model in rats; assay type: in vivo, SD rats
How it was run: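 Rat intestinal growth model: conjugates given s.c. at 0.5–8.0 mg/kg peptide dose, as one injection, on days 1 and 3, or every 6 days; small intestine weighed on day 3, 6, 7, 10, 12 or 14. Histology (H&E, duodenum/jejunum/ileum) gave crypt+villus length. Both reported as % increase over vehicle.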

GLP-2 receptor [8] = target: T2, GLP-2 receptor (UniProt O95838 1-553, limits assumed); experiment: cell-based or functional assay
T2 sequence (looked up): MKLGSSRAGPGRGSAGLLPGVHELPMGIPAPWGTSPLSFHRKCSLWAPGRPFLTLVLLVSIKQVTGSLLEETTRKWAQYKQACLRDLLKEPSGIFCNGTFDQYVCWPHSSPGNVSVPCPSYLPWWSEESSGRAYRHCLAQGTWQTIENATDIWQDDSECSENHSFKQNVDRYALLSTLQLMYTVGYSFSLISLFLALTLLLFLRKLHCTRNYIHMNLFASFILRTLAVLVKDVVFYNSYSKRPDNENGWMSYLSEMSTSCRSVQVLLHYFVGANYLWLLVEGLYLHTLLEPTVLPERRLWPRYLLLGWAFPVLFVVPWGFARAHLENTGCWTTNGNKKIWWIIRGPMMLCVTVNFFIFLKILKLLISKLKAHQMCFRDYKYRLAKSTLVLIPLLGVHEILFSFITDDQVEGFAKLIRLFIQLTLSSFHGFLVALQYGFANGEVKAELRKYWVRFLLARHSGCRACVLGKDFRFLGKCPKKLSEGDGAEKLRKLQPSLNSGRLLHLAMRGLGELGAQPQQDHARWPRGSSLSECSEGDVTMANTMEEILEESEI

GLP-2 receptor [9] = target: T2, GLP-2 receptor; experiment: cell-based or functional assay; remark: listed apart in the source

Molecule: NH2-HADGSFSDEMNTILDNLAARDFINWLIQTKITD-COOH [native GLP-2]
Biological (in vivo) half-life [1]: approximately 7 minutes

k12 [3]: 0.0065 h⁻¹
k21 [3]: 0.0068 h⁻¹
ka—pept [3]: 0.1661 h⁻¹
kpepte [3]: 0.0855 h⁻¹
CL ([3]; sc): 13.3 mL/h/kg
Vd ([3]; sc): 2.12 L/kg
Vpept ([3]; sc): 156 mL/kg
Vss ([3]; sc): 303 mL/kg
half-life ([3]; sc, t1/2 absorption): 250 min
half-life ([3]; t1/2 alpha): 450 min
half-life ([3]; t1/2 beta): 6610 min
Solubility via appearance [4]: V1: opaque
Stability via RP-HPLC main peak ([4]; change of main peak): V1: −20%
AUC(0-inf) [5]: 29.4 µM·h
AUC(0-t) [5]: 29.2 µM·h
CL/F [5]: 0.3 mL/min/kg
Cmax [5]: 1950 nM
Time post injection up to which detectable in blood [5]: ≤ 120 h
Tmax [5]: 8 h
Vd/F [5]: 0.38 L/kg
half-life [5]: 870 min
EC50 (GLP-2 receptor [6]): 1.7 nM
Molecule: CCCC[C@H](NC(=O)[C@H](CCC(=O)O)NC(=O)[C@H](CC(=O)O)NC(=O)[C@H](CO)NC(=O)[C@H](Cc1ccccc1)NC(=O)[C@H](CO)NC(=O)CNC(=O)[C@H](CC(=O)O)NC(=O)CNC(=O)[C@@H](N)Cc1cnc[nH]1)C(=O)N[C@H](Cc1ccccc1)C(=O)N[C@H](C(=O)N[C@H](C(=O)N[C@@H](CC(C)C)C(=O)N[C@@H](CC(=O)O)C(=O)N[C@@H](CC(C)C)C(=O)N[C@@H](CC(C)C)C(=O)N[C@@H](C)C(=O)N[C@@H](C)C(=O)N[C@@H](CCCNC(=N)N)C(=O)N[C@@H](CC(=O)O)C(=O)N[C@@H](Cc1ccccc1)C(=O)N[C@H](C(=O)N[C@@H](CC(N)=O)C(=O)N[C@@H](Cc1c[nH]c2ccccc12)C(=O)N[C@@H](CC(C)C)C(=O)N[C@H](C(=O)N[C@@H](CCC(N)=O)C(=O)N[C@H](C(=O)N[C@@H](CCCCN)C(=O)N[C@H](C(=O)N[C@H](C(=O)N[C@@H](CC(=O)O)C(N)=O)[C@@H](C)O)[C@@H](C)CC)[C@@H](C)O)[C@@H](C)CC)[C@@H](C)CC)[C@@H](C)CC)[C@@H](C)O [Variant 1, reference compound] (H-HGDGSFSDE[Nle][dF]TILDLLAARDFINWLIQTKITD-NH2)
Fpept ([2]; assumed absolute SC bioavailability in rats): 0.74
Absolute bioavailability following SC administration in rats ([2]; assumed): 74%

Time up to which detectable in plasma ([7]; single injection): up to 4 hours
half-life ([7]; rat, plasma, injected once at 2 mg/kg peptide dose, read-out: Half-Life (t1/2, hr) (converted)): 0.9 h
Molecule: CC[C@H](C)[C@H](NC(=O)[C@H](Cc1ccccc1)NC(=O)[C@H](CC(=O)O)NC(=O)[C@H](CCCNC(=N)N)NC(=O)[C@H](C)NC(=O)[C@H](C)NC(=O)[C@H](CC(C)C)NC(=O)[C@H](CC(N)=O)NC(=O)[C@H](CC(=O)O)NC(=O)[C@H](CC(C)C)NC(=O)[C@@H](NC(=O)[C@@H](NC(=O)[C@H](CC(N)=O)NC(=O)[C@H](CCSC)NC(=O)[C@H](CCC(=O)O)NC(=O)[C@H](CC(=O)O)NC(=O)[C@H](CO)NC(=O)[C@H](Cc1ccccc1)NC(=O)[C@H](CO)NC(=O)CNC(=O)[C@H](CC(=O)O)NC(=O)CNC(=O)[C@@H](N)Cc1c[nH]cn1)[C@@H](C)O)[C@@H](C)CC)C(=O)N[C@@H](CC(N)=O)C(=O)N[C@@H](Cc1c[nH]c2ccccc12)C(=O)N[C@@H](CC(C)C)C(=O)N[C@H](C(=O)N[C@@H](CCC(N)=O)C(=O)N[C@H](C(=O)N[C@@H](CCCCN)C(=O)N[C@H](C(=O)N[C@H](C(=O)N[C@@H](CC(=O)O)C(=O)O)[C@@H](C)O)[C@@H](C)CC)[C@@H](C)O)[C@@H](C)CC [GLP-2-Gly2, reference compound]
Increase of intestine weight over vehicle (%) (small intestine; 2.5 mg/kg daily injections for five days (5 injections), average of five studies): 25%
Average Intestine weight (gr) (small intestine; SD rats, SC on days 1 and 3 at 1 mg/kg peptide dose (2 injections), intestine weight on day 6): 5.7 gr
Increase of intestine weight over vehicle (%) (small intestine; SD rats, SC on days 1 and 3 at 1 mg/kg peptide dose (2 injections), intestine weight on day 6, listed as GLP-2-Gly2 (Teduglutide), 1 mg/kg): 5%
Increase of intestine weight over vehicle (%) (small intestine; SD rats, SC on days 1 and 3 at 1 mg/kg peptide dose (2 injections), intestine weight on day 6, listed as teduglutide, 1 mg/kg): did not increase intestine weight compared to vehicle

EC50 (nM) Average, GLP2-receptor CBA, 3 independent assays (GLP-2 receptor [8]): 1 nM
EC50 Ratio to Teduglutide, GLP2-receptor CBA (GLP-2 receptor [8]): 1.8 fold
EC50 Ratio to Teduglutide, CBA (GLP-2 receptor [9]): 3.8 fold
EC50 [nM], Cell Based Assay (CBA), cells overexpressing the GLP-2 receptor (GLP-2 receptor [9]): 21.6 nM
B1: GLP-2 Variant #4 (peptide)
peptide: H-HGEGSFSDE[Nle]NTILDLLAARDFINWLIQTKITD-NH2
SMILES: CCCC[C@H](NC(=O)[C@H](CCC(=O)O)NC(=O)[C@H](CC(=O)O)NC(=O)[C@H](CO)NC(=O)[C@H](Cc1ccccc1)NC(=O)[C@H](CO)NC(=O)CNC(=O)[C@H](CCC(=O)O)NC(=O)CNC(=O)[C@@H](N)Cc1c[nH]cn1)C(=O)N[C@@H](CC(N)=O)C(=O)N[C@H](C(=O)N[C@H](C(=O)N[C@@H](CC(C)C)C(=O)N[C@@H](CC(=O)O)C(=O)N[C@@H](CC(C)C)C(=O)N[C@@H](CC(C)C)C(=O)N[C@@H](C)C(=O)N[C@@H](C)C(=O)N[C@@H](CCCNC(=N)N)C(=O)N[C@@H](CC(=O)O)C(=O)N[C@@H](Cc1ccccc1)C(=O)N[C@H](C(=O)N[C@@H](CC(N)=O)C(=O)N[C@@H](Cc1c[nH]c2ccccc12)C(=O)N[C@@H](CC(C)C)C(=O)N[C@H](C(=O)N[C@@H](CCC(N)=O)C(=O)N[C@H](C(=O)N[C@@H](CCCCN)C(=O)N[C@H](C(=O)N[C@H](C(=O)N[C@@H](CC(=O)O)C(N)=O)[C@@H](C)O)[C@@H](C)CC)[C@@H](C)O)[C@@H](C)CC)[C@@H](C)CC)[C@@H](C)CC)[C@@H](C)O
